Laboratory results published in PMC7802075 (ACS Infectious Diseases, 2020).
Where a name gives a salt, the structure may show the parent alone.

Target: T1, LmjIPCS (inositol phosphorylceramide synthase from L. major) (Leishmania major, UniProt E9AFX2)
T1 sequence (E9AFX2 1-338): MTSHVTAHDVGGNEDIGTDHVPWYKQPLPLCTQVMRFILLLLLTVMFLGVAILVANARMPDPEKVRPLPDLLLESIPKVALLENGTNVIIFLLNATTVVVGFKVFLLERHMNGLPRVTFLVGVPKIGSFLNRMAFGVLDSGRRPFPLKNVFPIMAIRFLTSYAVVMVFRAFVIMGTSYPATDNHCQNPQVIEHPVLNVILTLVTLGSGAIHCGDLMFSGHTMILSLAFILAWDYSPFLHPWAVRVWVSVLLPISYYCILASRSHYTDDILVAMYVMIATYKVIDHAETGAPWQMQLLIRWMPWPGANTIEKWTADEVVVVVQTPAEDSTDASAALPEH
Experiment: biochemical
Assay type: biochemical
Design: inhibition: dose or concentration left out as unconfirmed
Details: not given

In order of rising “20mM inhibition LmjIPCS” value:
1. 1R,2S-PHENYLPROPYLAMINE  -2.19%
2. CNC(Cc1c[nH]c2ccccc12)C(=O)O (centres unmarked) [ABRINE (L)]  -1%
3. CCC(Cc1c(I)cc(I)c(N)c1I)C(=O)O (centres unmarked) [IOPANIC ACID]  7.62%
4. Cc1nnc(SCC2=C(C(=O)O)N3C(=O)[C@@H](NC(=O)Cn4cnnn4)[C@H]3SC2)s1 [CEFAZOLIN]  35%
5. O=C1c2ccccc2C(=O)c2c(O)c(O)cc(O)c21 [PURPURIN]  35%
6. CCOC(=O)OC(C)OC(=O)[C@@H]1N2C(=O)[C@@H](NC(=O)[C@H](N)c3ccccc3)[C@H]2SC1(C)C (some centres unmarked) [BACAMPICILLIN]  48%
7. CC(CCc1ccccc1)NCC(O)c1ccc(O)c(C(N)=O)c1 (centres unmarked) [LABETALOL]  50%
8. CC(C[N+](C)(C)C)OC(N)=O (centres unmarked) [BETHANECHOL]  53%
9. C[N+]12CCC(CC1)C(OC(=O)C(O)(c1ccccc1)c1ccccc1)C2 (centres unmarked) [CLIDINIUM BROMIDE]  54%
10. CC(=O)OCC1=C(C(=O)O)N2C(=O)[C@@H](NC(=O)Cc3cccs3)[C@H]2SC1 [CEPHALOTHIN]  55%
11. CC(C)(Oc1ccc(Cl)cc1)C(=O)O [CLOFIBRIC ACID]  56%
12. CC(NCCc1ccc(O)cc1)C(O)c1ccc(O)cc1 (centres unmarked) [RITODRINE]  58%
13. O=c1cc(-c2ccc(O)cc2)oc2cc(O)cc(O)c12 [APIGENIN]  59%
14. NCCCCCCNS(=O)(=O)c1cccc2c(Cl)cccc12  59%
15. CCCCC(=O)O[C@H]1CC[C@H]2[C@@H]3CCc4cc(O)ccc4[C@H]3CC[C@]12C [ESTRADIOL VALERATE]  66%

Same assay, conditions: NINDS set screen, compound at 20mM (so in the source)

In order of falling “20mM inhibition LmjIPCS” value:
1. Cc1c(OCC(F)(F)F)ccnc1C[S+]([O-])c1nc2ccccc2[nH]1 (centres unmarked) [LANSOPRAZOLE]  23%
2. N.N.[Cl][Pt][Cl] [CISPLATIN]  21%
3. COc1ccc(CCC(=O)c2c(O)cc(O[C@@H]3O[C@H](CO)[C@@H](O)[C@H](O)[C@H]3O[C@@H]3O[C@@H](C)[C@H](O)[C@@H](O)[C@H]3O)cc2O)cc1O [NEOHESPERIDIN DIHYDROCHALCONE]  15%

Same assay, conditions: NINDS set screen, single concentration printed as 20mM

In order of falling “20mM inhibition LmjIPCS” value:
1. Cc1cc(C(C)(C)C)cc(C)c1CC1=NCCN1 [XYLOMETAZOLINE]  62%
2. COLISTIMETHATE  56%
3. O=C(O)CCCCCCCC(=O)O [AZELAIC ACID]  38%

Same assay, conditions: NINDS set screen; read-out: inhibition LmjIPCS

In order of rising inhibition:
1. NC(=O)c1cnccn1 [PYRAZINAMIDE]  -17%
2. CCCCCCCC/C=C/CCCCCCCCOP(=O)([O-])OCC[N+](C)(C)C [ELAIDYLPHOSPHOCHOLINE]  -7%
3. Cc1c(NC(C)C)c(=O)n(-c2ccccc2)n1C [RAMIFENAZONE]  0.419%
4. COC(=O)N/N=C/c1c[n+]([O-])c2ccccc2[n+]1[O-] [CARBADOX]  12%
5. Cn1cc[nH]c1=S [METHIMAZOLE]  13%
6. O=C(O)C1=CCCNC1 [GUVACINE]  14%
7. CCCCOC(=O)c1ccc(N)cc1 [BUTAMBEN]  14%
8. C[C@H]1C[C@@H]2[C@H]([C@@H](O)C[C@@]3(C)[C@H]2CC[C@]3(O)C(=O)CO)[C@@]2(C)C=CC(=O)C=C12 [METHYLPREDNISOLONE]  16%
9. Nc1nc2c(c(=O)[nH]1)N(C=O)C(CNc1ccc(C(=O)N[C@@H](CCC(=O)O)C(=O)O)cc1)CN2 (some centres unmarked) [LEUCOVORIN]  17%
10. CCCCN(CCCC)CCCOC(=O)c1ccc(N)cc1 [BUTACAINE]  19%
11. CCC(=O)O[C@H]1[C@H](O[C@@H]2[C@@H](C)[C@H](O[C@H]3C[C@@](C)(OC)[C@@H](O)[C@H](C)O3)[C@@H](C)C(=O)O[C@H](CC)[C@@](C)(O)[C@H](O)[C@@H](C)C(=O)[C@H](C)C[C@@]2(C)O)O[C@H](C)C[C@@H]1N(C)C [ERYTHROMYCIN ESTOLATE]  22%
12. C[C@H]1c2cccc(O)c2C(=O)C2=C(O)[C@]3(O)C(=O)C(C(N)=O)=C(O)[C@@H](N(C)C)[C@@H]3[C@@H](O)[C@@H]21 [DOXYCYCLINE]  30%
13. CCN(CCO)CCCC(C)Nc1ccnc2cc(Cl)ccc12 (centres unmarked) [HYDROXYCHLOROQUINE]  31%

Same assay, conditions: read-out: 20mM inhibition LmjIPCS

In order of rising inhibition at 20000 µM:
1. CCc1cc(C(N)=S)ccn1 [ETHIONAMIDE]  -5.39%
2. COC(=O)C1=CCCN(C)C1 [ARECOLINE]  -3.74%
3. Nc1nc(N)c2nc(CNc3ccc(C(=O)N[C@@H](CCC(=O)O)C(=O)O)cc3)cnc2n1 [AMINOPTERIN]  0.247%
4. CC[C@@]1([C@@H]2O[C@@H]([C@H]3O[C@@](O)(CO)[C@H](C)C[C@@H]3C)C[C@@H]2C)CC[C@H]([C@]2(C)CC[C@]3(C[C@H](O)[C@@H](C)[C@@H]([C@@H](C)[C@@H](OC)[C@H](C)C(=O)O)O3)O2)O1 [MONENSIN]  0.265%
5. c1ccc(CC2=NCCN2)cc1 [TOLAZOLINE]  2.77%
6. C/C=C(\C)C(=O)O[C@H]1C[C@@H](OC(C)=O)[C@@]2(C(=O)OC)CO[C@H]3[C@@H](O)[C@@](C)([C@]45O[C@@]4(C)[C@H]4C[C@@H]5O[C@@H]5OC=C[C@@]54O)[C@H]4[C@]1(CO[C@]4(O)C(=O)OC)[C@@H]32 [AZADIRACHTIN]  3.53%
7. O=C1CCCN1CC#CCN1CCCC1 [OXOTREMORINE]  4%
8. CCOC(=O)[C@H](CCc1ccccc1)N[C@@H](C)C(=O)N1Cc2ccccc2C[C@H]1C(=O)O  5.45%
9. CC1(C)[C@@H](O)CC[C@]2(C)[C@H]3C(=O)C=C4[C@H]5C[C@@](C)(C(=O)O)CC[C@]5(C)CC[C@@]4(C)[C@]3(C)CC[C@@H]12  7%
10. C[n+]1ccccc1/C=N/O [PRALIDOXIME MESYLATE]  9%
11. CC(=O)OC/C=C(C)/C=C/C=C(C)/C=C/C1=C(C)CCCC1(C)C [RETINYL ACETATE]  9%
12. CCCCC(=O)Oc1ccccc1C(=O)O [VALERYL SALYCILATE]  10%
13. CC[C@@H](C)C(=O)O[C@H]1[C@H](O)[C@H]2[C@@H](CN3C[C@@H](C)CC[C@H]3[C@@]2(C)O)[C@@H]2C[C@]34O[C@]5(O)[C@@H](OC(=O)[C@](C)(O)[C@@H](C)O)CC[C@@]3(C)[C@@H]5[C@@H](OC(C)=O)[C@@H](OC(C)=O)[C@H]4[C@@]21O (stereo in doubt) [PROT[…]]  14%
14. CCCCCCNC(=O)n1cc(F)c(=O)[nH]c1=O [CARMOFUR]  14%
15. CO[C@@H]1[C@@H](OC(N)=O)[C@@H](O)[C@H](Oc2ccc3c(O)c(NC(=O)c4ccc(O)c(CC=C(C)C)c4)c(=O)oc3c2C)OC1(C)C [NOVOBIOCIN]  16%
16. Nc1nc(/C(=C/CC(=O)O)C(=O)N[C@@H]2C(=O)N3C(C(=O)O)=CCS[C@H]23)cs1 [CEFTIBUTEN]  18%
17. CNC(C)(C)Cc1ccccc1 [MEPHENTERMINE]  22%
18. NCCCCN=C(N)N [AGMATINE SULFATE]  24%
19. NCCc1c[nH]c2ccccc12 [TRYPTAMINE]  27%
20. CC[C@@H](C(=O)[C@@H](C)[C@@H](O)[C@H](C)[C@@H]1O[C@@H]([C@@H](CC)C(=O)O)CC[C@@H]1C)[C@H]1O[C@]2(C=C[C@@H](O)[C@]3(CC[C@@](C)([C@H]4CC[C@](O)(CC)[C@H](C)O4)O3)O2)[C@H](C)C[C@@H]1C [SALINOMYCIN]  29%
21. c1ccc2c(c1)sc1ccccc12 [DIBENZOTHIOPHENE]  32%

Same assay, conditions: read-out: inhibition LmjIPCS

In order of falling inhibition:
1. CCCCNC(=O)NS(=O)(=O)c1ccc(C)cc1 [TOLBUTAMIDE]  30%
2. c1coc(CNc2ncnc3[nH]cnc23)c1 [KINETIN]  16%
3. C[C@]12CCC(=O)C=C1CC[C@@H]1[C@@H]2[C@@H](O)C[C@@]2(C)[C@H]1CC[C@]2(O)C(=O)CO [HYDROCORTISONE]  13%
4. Cc1c(NC(=O)c2cccnc2)c(=O)n(-c2ccccc2)n1C [NIFENAZONE]  11%
5. CCCCNc1cc(C(=O)O)cc(S(N)(=O)=O)c1Oc1ccccc1 [BUMETANIDE]  9%
6. O=C1CC[C@@]2(O)[C@H]3Cc4ccc(O)c5c4[C@@]2(CCN3CC2CC2)[C@H]1O5 [NALTREXONE]  8%
7. C[C@]12CCC(=O)C=C1C=C[C@@H]1[C@@H]2CC[C@@]2(C)[C@H]1CC[C@@]2(O)CCC(=O)O [CANRENOIC ACID]  7%
8. CC1COc2c(N3CCN(C)CC3)c(F)cc3c(=O)c(C(=O)O)cn1c23 (centres unmarked) [OFLOXACIN]  5%
9. CC(C(=O)O)c1ccc(-c2ccccc2)c(F)c1 (centres unmarked) [FLURBIPROFEN]  4%
10. CNC(=C[N+](=O)[O-])NCCSCc1ccc(CN(C)C)o1 [RANITIDINE]  1.29%
11. NCCCCC(=O)O [5-AMINOPENTANOIC ACID]  -2.68%

Same assay, conditions: screening of NINDS set, sheet Screen 1; read-out: inhibition LmjIPCS

In order of rising inhibition:
1. CC(C(=O)O)c1ccc2c(c1)[nH]c1ccc(Cl)cc12 (centres unmarked) [CARPROFEN]  7%
2. CC(=O)Oc1ccc2c(c1)CCC1C2CC[C@]2(C)C(=O)CCC12 (some centres unmarked) [ESTRONE ACETATE]  8.56%
3. O=C(O)c1ccc(S(=O)(=O)N(Cl)Cl)cc1 [HALAZONE]  10%
4. Cn1c(=O)[nH]c2nc[nH]c2c1=O [1-METHYLXANTHINE]  11%

Same assay, conditions: single concentration 20mM as printed; screening of NINDS set, sheet Screen 1

In order of rising “20mM inhibition LmjIPCS” value:
1. C[C@H]1O[C@@H](n2cc(F)c(=O)[nH]c2=O)[C@H](O)[C@@H]1O [5-FLUORO-5'-DEOXYURIDINE]  3.33%
2. COc1ccc2c(c1)CC[C@@H]1[C@@H]2CC[C@]2(C)[C@@H](O)[C@H](O)C[C@@H]12 [ESTRIOL METHYL ETHER]  8%
3. NC1(C(=O)O)CC1 [AMINOCYCLOPROPANECARBOXYLIC ACID]  9%
4. SPIRAMYCIN  10%
